Test results reported in ChEMBL document CHEMBL1144726, “"Virtual fragment linking": an approach to identify potent binders from low affinity fragment hits” (J Med Chem, 2008).

biological target: Nitric oxide synthase, inducible (Homo sapiens, UniProt P35228)
Sequence (P35228 whole entry): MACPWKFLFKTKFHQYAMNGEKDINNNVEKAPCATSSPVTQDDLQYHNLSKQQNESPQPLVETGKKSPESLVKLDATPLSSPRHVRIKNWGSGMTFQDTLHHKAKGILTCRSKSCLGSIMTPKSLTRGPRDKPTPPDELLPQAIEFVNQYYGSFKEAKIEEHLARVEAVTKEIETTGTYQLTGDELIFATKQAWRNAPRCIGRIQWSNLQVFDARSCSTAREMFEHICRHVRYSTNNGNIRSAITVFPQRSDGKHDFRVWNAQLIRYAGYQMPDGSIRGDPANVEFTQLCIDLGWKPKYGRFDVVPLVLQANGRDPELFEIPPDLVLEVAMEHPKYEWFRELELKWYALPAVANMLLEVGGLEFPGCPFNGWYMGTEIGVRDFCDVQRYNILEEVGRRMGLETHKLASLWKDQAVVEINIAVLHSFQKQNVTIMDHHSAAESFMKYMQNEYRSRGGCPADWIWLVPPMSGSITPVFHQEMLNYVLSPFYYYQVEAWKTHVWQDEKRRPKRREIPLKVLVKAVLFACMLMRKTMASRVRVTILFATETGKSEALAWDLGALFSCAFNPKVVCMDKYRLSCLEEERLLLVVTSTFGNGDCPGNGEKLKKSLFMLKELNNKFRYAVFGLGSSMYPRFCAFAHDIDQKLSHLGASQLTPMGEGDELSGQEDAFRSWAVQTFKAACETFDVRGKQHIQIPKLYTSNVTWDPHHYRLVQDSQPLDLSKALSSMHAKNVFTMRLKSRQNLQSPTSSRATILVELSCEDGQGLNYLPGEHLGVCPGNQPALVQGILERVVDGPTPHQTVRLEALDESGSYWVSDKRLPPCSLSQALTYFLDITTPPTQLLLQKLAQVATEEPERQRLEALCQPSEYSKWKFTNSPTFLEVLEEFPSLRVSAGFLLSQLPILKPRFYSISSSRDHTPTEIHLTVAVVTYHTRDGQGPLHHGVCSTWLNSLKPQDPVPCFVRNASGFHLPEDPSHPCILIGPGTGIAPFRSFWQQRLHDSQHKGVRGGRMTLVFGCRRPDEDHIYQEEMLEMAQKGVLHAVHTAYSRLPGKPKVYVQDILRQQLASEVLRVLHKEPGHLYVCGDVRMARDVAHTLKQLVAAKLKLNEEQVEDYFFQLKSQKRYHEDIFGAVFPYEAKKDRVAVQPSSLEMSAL

Row | IC50 [nM] | SMILES
1 | 1200 | Cc1cccc2c1C(N)=NC(C1CCC1)N2 (stereo not given)

biological target: Estrogen receptor beta (Homo sapiens, UniProt Q92731)
Sequence (Q92731 whole entry): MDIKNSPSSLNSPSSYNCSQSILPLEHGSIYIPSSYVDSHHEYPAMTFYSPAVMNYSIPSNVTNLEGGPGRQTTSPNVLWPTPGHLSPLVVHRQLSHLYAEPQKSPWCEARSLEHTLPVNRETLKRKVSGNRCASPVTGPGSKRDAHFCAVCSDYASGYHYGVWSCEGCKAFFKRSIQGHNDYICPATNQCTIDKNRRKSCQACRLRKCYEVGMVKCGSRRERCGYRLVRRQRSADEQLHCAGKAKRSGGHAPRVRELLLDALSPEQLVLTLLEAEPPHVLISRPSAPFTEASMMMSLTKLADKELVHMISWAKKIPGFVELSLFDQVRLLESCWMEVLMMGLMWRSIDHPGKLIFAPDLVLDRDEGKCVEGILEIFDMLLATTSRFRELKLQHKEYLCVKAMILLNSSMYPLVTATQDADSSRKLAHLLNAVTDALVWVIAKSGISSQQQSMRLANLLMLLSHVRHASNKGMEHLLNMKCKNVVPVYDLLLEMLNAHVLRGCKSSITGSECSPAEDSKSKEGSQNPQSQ

Row | IC50 [nM] | SMILES
2 | 2900 | Nc1ccc(-c2ccc(O)cc2)cc1Cl
3 | 10000 | Oc1ccc2nn(-c3ccccc3)cc2c1
4 | 2100 | Cc1cc(-c2cccc(Cl)c2)ccc1O
5 | 2400 | COc1ccc(-c2ccc(O)cc2)cc1
6 | 1200 | Oc1ccc(-c2cccc(F)c2)cc1
7 | 1100 | Oc1ccc(-n2nc3ccccc3c2Cl)cc1
8 | 1800 | N#Cc1ccccc1-c1ccc(O)cc1
9 | 4000 | Cc1cc(O)ccc1-c1ccccc1
10 | 3100 | Oc1ccc(-c2ccccc2)cc1Cl
